Values quoted from earlier work as cited in US9375441B2, “Lactulose for bowel evacuation” (Cumberland Pharmaceuticals, priority 2011, dated 2016).

Key:
[1] = system: patients at increased risk for colorectal cancer
[2] = not given; remark: listed apart in the source
[3] = system: patients with a history of chronic constipation

patients with diarrhea sometime during the bowel preparation, % ([1]; 12 g lactulose powder once per day from 48 hours before MR colonography): 38% | patients with diarrhea sometime during the bowel preparation, number ([1]; 12 g lactulose powder once per day from 48 hours before MR colonography, low-fiber diet, oral gadolinium contrast): 77 | patients in whom diarrhea occurred just prior to imaging, number ([1]; of the 77 patients with diarrhea): 48 | solubility in water: freely soluble | state in which oral doses reach the colon ([2]; no hydrolysing enzyme in human gastrointestinal tissue): virtually unchanged | absorption from the gastrointestinal tract ([2]; oral): poorly absorbed
SMILES: OC[C@H]1O[C@@H](O[C@@H]2[C@@H](CO)O[C@](O)(CO)[C@H]2O)[C@H](O)[C@@H](O)[C@H]1O [lactulose, 4-O-b-D-Galactopyranosyl-D-fructofuranose]
number of bowel movements per day and number of days on which bowel movements occur [3]: increases
